Source: patent US11306117B2, “Whitening composition containing novel quercetin-based compound” (AMOREPACIFIC CORPORATION, priority 2017, dated 2022)

Assays:
healthy adult examinees = assay: HRIPT (Human repeated insult patch tests), skin accumulated stimulus; assay type: in vivo; parameters: key to skin reactivity (ICDRG criteria): −: negative (no response); ±: doubtful or slight erythema, etc.; +: weak reaction (which is accompanied with no phlyctenule), erythema, papule; ++: severe reaction (which is accompanied with phylctenule), erythema, papule, phlyctenule; +++: strong reaction, bullae reaction; settings: for average reactivity: 9 patches, 15 examinees; for Number of examinees who exhibited ±, +, or ++ reactivity 1st: 1st patch; for Number of examinees who exhibited ±, +, or ++ reactivity 2nd: 2nd patch; for Number of examinees who exhibited ±, +, or ++ reactivity 3rd: 3rd patch; for Number of examinees who exhibited ±, +, or ++ reactivity 4th: 4th patch; for Number of examinees who exhibited ±, +, or ++ reactivity 5th: 5th patch; for Number of examinees who exhibited ±, +, or ++ reactivity 6th: 6th patch; for Number of examinees who exhibited ±, +, or ++ reactivity 7th: 7th patch; for Number of examinees who exhibited ±, +, or ++ reactivity 8th: 8th patch; for Number of examinees who exhibited ±, +, or ++ reactivity 9th: 9th patch
Method: HRIPT (Human repeated insult patch tests) was conducted in order to identify skin accumulated stimulus of quercetin3-O-[3-O″-(E)-p-coumaroyl][β-D-glucopyranosyl-(1→3)-O-α-L-rhamnopyranosyl-(1→6)-O-β-D-glucopyranoside] and quercetin3-O-[3-O″-(E)-p-coumaroyl][α-L-rhamnopyranosyl-(1→6)-O-β-D-glucopyranoside]and to calculate the concentration range that can be used in skin.
Specifically, 15 healthy adult examinees were randomly selected, and test compositions in which the compounds were respectively comprised in an amount of 0.5 wt. %, 1 wt. %, and 3 wt. % (the compositions for skin, comprising an emulsifying agent, a stabilizer, purified water, etc. in addition to the compounds) were dropped in the amount of 20 μl per chamber (IQ chamber, Epitest Ltd, Finland), and patched on the right site of the upper back of the examinees, and then, after 24 hours, the patch was replaced with a new patch. A total of 9 patches were conducted, three times a week for total 3 weeks, in such manner, the skin reactions before and after patch were examined every time, and the skin reactions until 48 hours after removing the final patch were observed, and the average reactivity was observed.
The skin reaction was determined according to the criteria of International Contact Dermatitis Research Group (ICDRG). In the above table, “New Material 31” refers to quercetin3-O-[3-O″-(E)-p-coumaroyl][β-D-glucopyranosyl-(1→3)-O-α-L-rhamnopyranosyl-(1→6)-O-β-D-glucopyranoside], and “New Material 32” refers to quercetin3-O-[3-O″-(E)-p-coumaroyl][α-L-rhamnopyranosyl-(1→6)-O-β-D-glucopyranoside].

mushroom tyrosinase = assay: Inhibition of tyrosinase activity; assay type: biochemical; settings: L-tyrosine, 37° C., 20 minutes, absorbance 490 nm
Method: The effect of New Materials 31 and 32 on inhibiting tyrosinase activity was evaluated.
Specifically, tyrosinase and tyrosine derived from mushroom were obtained from Sigma Chemical. Together with 150 μl of 0.1 M phosphate buffer (pH 6.5), 8 μl of mushroom tyrosinase (2,100 unit/ml) and 0.05 M concentration of L-tyrosine, arbutin and New Materials 31 and 32 were treated at the concentrations of following Table 3, respectively. The tyrosinase activity was evaluated by performing the enzyme reaction at 37° C. for 20 minutes and then measuring absorbance at 490 nm using a microplate reader (Bio-Rad 3550, Richmond, Calif., U.S.A.).

## C[C@@H]1O[C@@H](OC[C@H]2O[C@@H](Oc3c(-c4ccc(O)c(O)c4)oc4cc(O)cc(O)c4c3=O)[C@H](O)[C@@H](OC(=O)/C=C/c3ccc(O)cc3)[C@@H]2O)[C@H](O)[C@H](O)[C@H]1O [New Material 32, quercetin3-O-[3-O″-(E)-p-coumaroyl][α-L-rhamnopyranosyl-(1→6)-O-β-D-glucopyranoside]]
Healthy adult examinees; 0.5 wt.% in test composition
  average reactivity: 0
Healthy adult examinees; 0.5 wt.%, 1 wt.% and 3 wt.%, 9 patches in 3 weeks
  skin reactivity (ICDRG criteria): −
Healthy adult examinees; 0.5 wt.%, line 1 of 3 (±)
  Number of examinees who exhibited ±, +, or ++ reactivity 1st: 0 number
  Number of examinees who exhibited ±, +, or ++ reactivity 2nd: 0 number
  Number of examinees who exhibited ±, +, or ++ reactivity 3rd: 0 number
  Number of examinees who exhibited ±, +, or ++ reactivity 4th: 0 number
  Number of examinees who exhibited ±, +, or ++ reactivity 5th: 0 number
  Number of examinees who exhibited ±, +, or ++ reactivity 6th: 0 number
  Number of examinees who exhibited ±, +, or ++ reactivity 7th: 0 number
  Number of examinees who exhibited ±, +, or ++ reactivity 8th: 0 number
  Number of examinees who exhibited ±, +, or ++ reactivity 9th: 0 number
Healthy adult examinees; 0.5 wt.%, line 2 of 3 (+)
  Number of examinees who exhibited ±, +, or ++ reactivity 1st: 0 number
  Number of examinees who exhibited ±, +, or ++ reactivity 2nd: 0 number
  Number of examinees who exhibited ±, +, or ++ reactivity 3rd: 0 number
  Number of examinees who exhibited ±, +, or ++ reactivity 4th: 0 number
  Number of examinees who exhibited ±, +, or ++ reactivity 5th: 0 number
  Number of examinees who exhibited ±, +, or ++ reactivity 6th: 0 number
  Number of examinees who exhibited ±, +, or ++ reactivity 7th: 0 number
  Number of examinees who exhibited ±, +, or ++ reactivity 8th: 0 number
  Number of examinees who exhibited ±, +, or ++ reactivity 9th: 0 number
Healthy adult examinees; 0.5 wt.%, line 3 of 3 (++)
  Number of examinees who exhibited ±, +, or ++ reactivity 1st: 0 number
  Number of examinees who exhibited ±, +, or ++ reactivity 2nd: 0 number
  Number of examinees who exhibited ±, +, or ++ reactivity 3rd: 0 number
  Number of examinees who exhibited ±, +, or ++ reactivity 4th: 0 number
  Number of examinees who exhibited ±, +, or ++ reactivity 5th: 0 number
  Number of examinees who exhibited ±, +, or ++ reactivity 6th: 0 number
  Number of examinees who exhibited ±, +, or ++ reactivity 7th: 0 number
  Number of examinees who exhibited ±, +, or ++ reactivity 8th: 0 number
  Number of examinees who exhibited ±, +, or ++ reactivity 9th: 0 number
Healthy adult examinees; 1 wt.% in test composition
  average reactivity: 0
Healthy adult examinees; 1 wt.%, line 1 of 3 (±)
  Number of examinees who exhibited ±, +, or ++ reactivity 1st: 0 number
  Number of examinees who exhibited ±, +, or ++ reactivity 2nd: 0 number
  Number of examinees who exhibited ±, +, or ++ reactivity 3rd: 0 number
  Number of examinees who exhibited ±, +, or ++ reactivity 4th: 0 number
  Number of examinees who exhibited ±, +, or ++ reactivity 5th: 0 number
  Number of examinees who exhibited ±, +, or ++ reactivity 6th: 0 number
  Number of examinees who exhibited ±, +, or ++ reactivity 7th: 0 number
  Number of examinees who exhibited ±, +, or ++ reactivity 8th: 0 number
  Number of examinees who exhibited ±, +, or ++ reactivity 9th: 0 number
Healthy adult examinees; 1 wt.%, line 2 of 3 (+)
  Number of examinees who exhibited ±, +, or ++ reactivity 1st: 0 number
  Number of examinees who exhibited ±, +, or ++ reactivity 2nd: 0 number
  Number of examinees who exhibited ±, +, or ++ reactivity 3rd: 0 number
  Number of examinees who exhibited ±, +, or ++ reactivity 4th: 0 number
  Number of examinees who exhibited ±, +, or ++ reactivity 5th: 0 number
  Number of examinees who exhibited ±, +, or ++ reactivity 6th: 0 number
  Number of examinees who exhibited ±, +, or ++ reactivity 7th: 0 number
  Number of examinees who exhibited ±, +, or ++ reactivity 8th: 0 number
  Number of examinees who exhibited ±, +, or ++ reactivity 9th: 0 number
Healthy adult examinees; 1 wt.%, line 3 of 3 (++)
  Number of examinees who exhibited ±, +, or ++ reactivity 1st: 0 number
  Number of examinees who exhibited ±, +, or ++ reactivity 2nd: 0 number
  Number of examinees who exhibited ±, +, or ++ reactivity 3rd: 0 number
  Number of examinees who exhibited ±, +, or ++ reactivity 4th: 0 number
  Number of examinees who exhibited ±, +, or ++ reactivity 5th: 0 number
  Number of examinees who exhibited ±, +, or ++ reactivity 6th: 0 number
  Number of examinees who exhibited ±, +, or ++ reactivity 7th: 0 number
  Number of examinees who exhibited ±, +, or ++ reactivity 8th: 0 number
  Number of examinees who exhibited ±, +, or ++ reactivity 9th: 0 number
Healthy adult examinees; 3 wt.% in test composition
  average reactivity: 0
Healthy adult examinees; 3 wt.%, line 1 of 3 (±)
  Number of examinees who exhibited ±, +, or ++ reactivity 1st: 0 number
  Number of examinees who exhibited ±, +, or ++ reactivity 2nd: 0 number
  Number of examinees who exhibited ±, +, or ++ reactivity 3rd: 0 number
  Number of examinees who exhibited ±, +, or ++ reactivity 4th: 0 number
  Number of examinees who exhibited ±, +, or ++ reactivity 5th: 0 number
  Number of examinees who exhibited ±, +, or ++ reactivity 6th: 0 number
  Number of examinees who exhibited ±, +, or ++ reactivity 7th: 0 number
  Number of examinees who exhibited ±, +, or ++ reactivity 8th: 0 number
  Number of examinees who exhibited ±, +, or ++ reactivity 9th: 0 number
Healthy adult examinees; 3 wt.%, line 2 of 3 (+)
  Number of examinees who exhibited ±, +, or ++ reactivity 1st: 0 number
  Number of examinees who exhibited ±, +, or ++ reactivity 2nd: 0 number
  Number of examinees who exhibited ±, +, or ++ reactivity 3rd: 0 number
  Number of examinees who exhibited ±, +, or ++ reactivity 4th: 0 number
  Number of examinees who exhibited ±, +, or ++ reactivity 5th: 0 number
  Number of examinees who exhibited ±, +, or ++ reactivity 6th: 0 number
  Number of examinees who exhibited ±, +, or ++ reactivity 7th: 0 number
  Number of examinees who exhibited ±, +, or ++ reactivity 8th: 0 number
  Number of examinees who exhibited ±, +, or ++ reactivity 9th: 0 number
Healthy adult examinees; 3 wt.%, line 3 of 3 (++)
  Number of examinees who exhibited ±, +, or ++ reactivity 1st: 0 number
  Number of examinees who exhibited ±, +, or ++ reactivity 2nd: 0 number
  Number of examinees who exhibited ±, +, or ++ reactivity 3rd: 0 number
  Number of examinees who exhibited ±, +, or ++ reactivity 4th: 0 number
  Number of examinees who exhibited ±, +, or ++ reactivity 5th: 0 number
  Number of examinees who exhibited ±, +, or ++ reactivity 6th: 0 number
  Number of examinees who exhibited ±, +, or ++ reactivity 7th: 0 number
  Number of examinees who exhibited ±, +, or ++ reactivity 8th: 0 number
  Number of examinees who exhibited ±, +, or ++ reactivity 9th: 0 number
Mushroom tyrosinase
  IC50 inhibiting tyrosinase activity: 19 ppm
